Holding throughout (assay type): cell-based
Test [1] deals with HT-29 cells. The test can be described thus: Cell proliferation experiment, HT-29 cells. To be noted: Cell Titer-Glo, read-out: Cell antiproliferation data HT-29. The protocol: (§1) Reagents: RPMI-1640 medium, McCoy's 5A medium, IMDM medium, MEM medium, L-15 medium, fetal bovine serum, Penicillin-Streptomycin double antibody, trypsin, etc., 2-mercaptoethanol, NEAA, pyruvate, etc.
(§2) The test cells were cultured in conventional ways, and the cells should be passed for at least 2 generations before plating.
(§3) 25 μL of 1000 HT-29, N87, SKOV3, Colo-205 and MDA-MB-231 cells were inoculated in a 384-well plate with black wall and transparent bottom, 25 μL of different concentrations of compounds were added, and the cells were cultured overnight under condition of 37° C. and 5% CO2.
(§4) 25 μL of 1500 H82 and H69 cells were inoculated in a 384-well plate with black wall and transparent bottom, 25 μL of different concentrations of compounds were added, and the cells were cultured for 72 hours under condition of 37° C. and 5% CO2. The 384-well plate was equilibrated at room temperature, 25 μL of Cell Titer-Glo® reagent was added to each well, and the cells were lysed by shaking on a horizontal shaking shaker for 2 minutes, incubated at room temperature for 10 minutes to stabilize the luminescent signal, and then the chemiluminescent signal was detected using Envision.
(§5) All cells were subjected to IC50 test for corresponding samples.
(§6) The fluorescence intensity of each well was detected using the Alarm blue method, and EC50 was calculated.
(§7) IC50 was calculated according to the following formula:
(§8) [formula] • wherein, Min, Max and Slope represent the minimum, maximum and slope respectively.

For test [2], the system named is H82 cells. Nature of the test: Cell proliferation experiment, H82 cells. The settings on record: Homo sapiens, NCI-H82, cultured for 72 hours, Cell Titer-Glo, read-out: Cell antiproliferation data H82. The protocol: as §1, §2, §4
(§9) All cells were subjected to IC50 test for corresponding samples. […]
as §7, §8

Test [3] relates to H69 cells. Nature of the test: Cell proliferation experiment, H69 cells. The settings on record: cultured for 72 hours, Cell Titer-Glo, read-out: Cell antiproliferation data H69. The protocol:
as §1, §2, §4, §9, §7, §8
In general terms: ATP-based viability assays read luminescence as a measure of living cells.

Test [4] relates to SKOV3 cells. The test can be described thus: Cell proliferation experiment, SKOV3 cells. To be noted: Cell Titer-Glo, read-out: Cell antiproliferation data SKOV3. The protocol: as §1, §2, §3, §4, §5, §6, §7, §8
For test [5], the system named is MDA-MB-231 cells. Nature of the test: Cell proliferation experiment, MDA-MB-231 cells. To be noted: Cell Titer-Glo, read-out: Cell antiproliferation data MDA-MB-231. The protocol:
as §1, §2, §3, §4, §5, §6, §7, §8

Test [6] has as its system N87 cells. The test can be described thus: Cell proliferation experiment, N87 cells. The settings on record: Cell Titer-Glo, read-out: Cell antiproliferation data N87. The protocol: as §1, §2, §3, §4, §5, §6, §7, §8
For test [7], the system named is Colo-205 cells. Nature of the test: Cell proliferation experiment, Colo-205 cells. The settings on record: Cell Titer-Glo, read-out: Cell antiproliferation data Colo-205. The protocol: as §1, §2, §3, §4, §5, §6, §7, §8
For test [8], the system named is HepG2 cells. The test can be described thus: Antiproliferative effect on HepG2 cells. To be noted: Homo sapiens. The protocol: as §1, §2, §5, §6, §7, §8
The subject of test [9] is Cyclin K. Nature of the test: Immunohistochemistry (IHC) staining of Cyclin K in HepG2 cells. The settings on record: incubated with compound 2 hours, CCNK antibody. The protocol: Appropriate amount of compounds were added to the cultured cells. The cells were incubated in a tissue culture incubator at 37° C. for 2 hours.
After washing the cultured cells twice with PBS, 100 μL 10% neutral buffered formalin were added and the cells were fixed for 20 minutes.
After washing 3 times with PBS, immunohistochemical staining was performed using CCNK antibody and general two-step detection kit (mouse/rabbit enhanced polymer detection system, PV-9000, Zsbio Inc, Beijing).
Specifically, 100 μL of endogenous peroxidase blocker in the kit was added, cells were incubated at room temperature for 10 minutes; rinsed with PBS buffer for 3 minutes×3 times.
100 μL CCNK antibody 1:5000 dilution was added, and the cells were incubated at 37° C. for 60 minutes; rinsed with PBS buffer for 3 minutes×3 times.
100 μL reaction enhancer was added, and the cells were incubated at 37° C. for 20 minutes; rinsed with PBS buffer for 3 minutes×3 times.
100 μL enhanced enzyme-labeled goat anti-mouse/rabbit IgG polymer was added, and the cells were incubated at 37° C. for 20 minutes; rinsed with PBS buffer for 3 minutes×3 times.
The cells were placed in 75% ethanol, soaked for 3 minutes×2 times; placed in 95% ethanol, soaked for 3 minutes×2 times; after removing excess liquid, placed in anhydrous ethanol, soaked for 3 minutes×3 times; after removing excess liquid, air dried, observed under a microscope and taken pictures after sealing.

Setting [10] is: Homo sapiens, SK-OV-3, SKOV3 cells.
Setting [11] is: Homo sapiens, COLO 205, Colo-205 cells.

Where two headings read alike, the source gives them in different places.

Consider `CCn1cnc2c(NCc3ccc(-c4cccc(CO)c4)cc3)nc(N3CCNCC3)nc21` [UB-005], for which the IC50 in [1], in test [2], in [3], in test [4] (SKOV3 cells), in [5] and in test [6] was not above 100 nM each time. In addition, in [7] (Colo-205 cells), the IC50 was not above 100 nM.
Consider `CC[C@H](CO)Nc1nc(NCc2ccc(-c3ccccc3)cc2)c2ncn(C(C)C)c2n1` [UB-007, (R)-2-((6-(([1,1′-biphenyl]-4-ylmethyl)amino)-9-isopropyl-9H-purin-2-yl)amino)butan-1-ol], for which the IC50 in [1] (Homo sapiens) was 100 to 300 nM; in test [2], 100 to 300 nM; in test [3] (Homo sapiens, NCI-H69, 72 h), more than 300 nM; in [4] (setting [10]) it was more than 300 nM; in [5] (Homo sapiens), more than 300 nM; in test [6], 100 to 300 nM. Also, in [7] (setting [11]), the IC50 was more than 300 nM.
As for `CCn1cnc2c(NCc3ccc(-c4cccc(CO)n4)cc3)nc(N3CCOCC3)nc21` [UB-001], the IC50 in test [1] (Homo sapiens) is not above 100 nM; in test [2], 100 to 300 nM; in [3] (Homo sapiens, NCI-H69, 72 h) it was not above 100 nM; in [5] (Homo sapiens), not above 100 nM; in [6], not above 100 nM; in test [7] (setting [11]), 100 to 300 nM.
Take `CCn1cnc2c(NCc3ccc(-c4cccc(CO)c4)cc3)nc(N3CCNCC3)nc21` [UB-004]: the IC50 was not above 100 nM in test [1] (Homo sapiens); more than 300 nM in [3]; 100 to 300 nM in [4] (setting [10]); not above 100 nM in test [5] (Homo sapiens); 100 to 300 nM in test [7] (setting [11]).
Turning to `CC(C)n1cnc2c(NCc3ccc(-c4ccccc4)cc3)nc(N[C@H]3CC[C@H](N)C3)nc21` [UB-040, N6-([1,1′-biphenyl]-4-yl-methyl)-N2-((1S,3S)-3-aminocyclopentyl)-9-isopropyl-9H-purin-2,6-diamine], the IC50 in [8] was less than 50 nM. For the same compound, in [9], the “Cyclin K IHC data of HepG2 cells” value is listed as “B (31 nM < B <= 93 nM)”.
In [8], `CC(C)n1cnc2c(NCc3ccc(-c4ccccc4)cc3)nc(N3CCNC[C@H]3CO)nc21` [UB-022, (S)-(1-(6-(([1,1′-biphenyl]-4-ylmethyl)amino)-9-isopropyl-9H-purin-2-yl)piperazin-2-yl) methanol] returned an IC50 of less than 50 nM. Besides, the “Cyclin K IHC data of HepG2 cells” value in test [9] is given as “A (A <= 31 nM)”.
Turning to `CCn1cnc2c(NCc3ccc(-c4ccccn4)cc3)nc(N[C@H]3CC[C@H](O)CC3)nc21` [UB-006], the IC50 in test [1] (Homo sapiens) was not above 100 nM; in [3] (Homo sapiens, NCI-H69, 72 h), more than 300 nM; in test [4] (setting [10]) it was not above 100 nM; in [5] (Homo sapiens) it was not above 100 nM; in [7] (setting [11]), not above 100 nM.
In turn, `CC(C)n1cnc2c(NCc3ccc(-c4ccccc4)c(OCCN)c3)nc(N3CCNCC3)nc21` [UB-062, N-((2-(2-aminoethoxy)-[1,l′-biphenyl]-4-yl)methyl)-9-isopropyl-2-(piperazin-1-yl)-9H-purin-6-amine] returned an IC50 in test [8] of more than 300 nM. For the same compound, the “Cyclin K IHC data of HepG2 cells” value in test [9] is reported as “D (D > 278 nM)”.
On the same counts, the results for `CC(C)n1cnc2c(NCc3ccc(-c4ccccc4)cc3)nc(N[C@H]3C[C@H](N)C3)nc21` [UB-061, N6-([1,1′-biphenyl]-4-yl-methyl)-N2-((1r,3r)-3-aminocyclobutyl)-9-isopropyl-9H-purin-2,6-diamine] are less than 50 nM and “B (31 nM < B <= 93 nM)”.
Taken in the same sequence, the figures for `CC(C)n1cnc2c(NCc3ccc(-c4ccccc4)cc3)nc(N3CCN[C@@H](C)C3)nc21` [UB-026, (S)-N-([1,1′-biphenyl]-4-ylmethyl)-9-isopropyl-2-(3-methylpiperazin-1-yl)-9H-purin-6-amine] were less than 50 nM and “B (31 nM < B <= 93 nM)”.
Taken in the same sequence, the figures for `CC(C)n1cnc2c(NCc3ccc(-c4ccccc4)cc3)nc(OC[C@@H]3CNCCN3)nc21` [UB-033, (S)-N-([1,l′-biphenyl]-4-ylmethyl)-9-isopropyl-2-(piperazin-2-ylmethoxy)-9H-purin-6-amine] were 50 to 100 nM and “C (93 nM < C <= 278 nM)”.
Take `CCn1cnc2c(NCc3ccc(-c4cccc(CO)n4)cc3)nc(N3CCNCC3)nc21` [UB-002]: the IC50 in test [1] (Homo sapiens) is not above 100 nM; in test [2] it was 100 to 300 nM; in test [3] (Homo sapiens, NCI-H69, 72 h), not above 100 nM; in [5] (Homo sapiens), not above 100 nM; in [6], not above 100 nM; in test [7] (setting [11]) it was not above 100 nM.
Regarding `CC(C)n1cnc2c(NCc3ccc(-c4ccccc4)cc3)nc(N[C@H]3C[C@@H](N)C3)nc21` [UB-041, N6-([1,1′-biphenyl]-4-yl-methyl)-N2-((1s,3s)-3-aminocyclobutyl)-9-isopropyl-9H-purin-2,6-diamine], the IC50 in test [8] was less than 50 nM. In test [9], the “Cyclin K IHC data of HepG2 cells” value was “C (93 nM < C <= 278 nM)”.
Taken in the same sequence, the figures for `CC(C)n1cnc2c(NCc3ccc(-c4ccccc4)cc3)nc(N[C@H]3CC[C@@H](N)C3)nc21` [UB-039, N6-([1,1′-biphenyl]-4-yl-methyl)-N2-((1S,3R)-3-aminocyclopentyl)-9-isopropyl-9H-purin-2,6-diamine] were 50 to 100 nM and “C (93 nM < C <= 278 nM)”.
On the same counts, the results for `c1ccc(-c2ccc(CNc3nc(N4CCNCC4)nc4c3ncn4-c3ccccc3)cc2)cc1` [UB-053, N-([1,1′-biphenyl]-4-ylmethyl)-9-phenyl-2-(piperazin-1-yl)-9H-purin-6-amine] are more than 300 nM and “D (D > 278 nM)”.
Compound `CC(C)n1cnc2c(NCc3ccc(-c4ccccc4OCCO)cc3)nc(N3CCNCC3)nc21` [UB-047, 2-((4′-(((9-isopropyl-2-(piperazin-1-yl)-9H-purin-6-yl)amino)methyl)-[1,1′-biphenyl]-2-yl)oxy)ethan-1-ol] displayed an IC50 in test [8] of 50 to 100 nM. The “Cyclin K IHC data of HepG2 cells” value in test [9] is reported as “D (D > 278 nM)”.
Taken in the same sequence, the figures for `CC(C)n1cnc2c(NCc3ccc(-c4ccccc4)cc3)nc(N3CCNC[C@H]3C)nc21` [UB-020, (R)-N-([1,1′-biphenyl]-4-ylmethyl)-9-isopropyl-2-(2-methylpiperazin-1-yl)-9H-purin-6-amine] were less than 50 nM and “B (31 nM < B <= 93 nM)”.
On the same counts, the results for `CC(C)n1cnc2c(NCc3ccc(-c4ccccc4)c(OCCCCO)c3)nc(N3CCNCC3)nc21` [UB-045, 4-((4-(((9-isopropyl-2-(piperazin-1-yl)-9H-purin-6-yl)amino)methyl)-[1,1′-biphenyl]-2-yl)oxy)butan-1-ol] are more than 300 nM and “D (D > 278 nM)”.
As to `CCn1cnc2c(NCc3ccc(-c4cccc(CO)n4)cc3)nc(N3CCN(C)CC3)nc21` [UB-003], the IC50 in [1] (Homo sapiens) is not above 100 nM; in test [3] (Homo sapiens, NCI-H69, 72 h), 100 to 300 nM; in test [5] (Homo sapiens) it was not above 100 nM; in [7] (setting [11]) it was not above 100 nM.
Take `Cn1cc(-n2cnc3c(NCc4ccc(-c5ccccc5)cc4)nc(N4CCNCC4)nc32)cn1` [UB-055, N-([1,1′-biphenyl]-4-ylmethyl)-9-(1-methyl-1H-pyrazol-4-yl)-2-(piperazin-1-yl)-9H-purin-6-amine]: the IC50 in test [8] was more than 300 nM. Also, the “Cyclin K IHC data of HepG2 cells” value in test [9] is listed as “D (D > 278 nM)”.

The values are drawn from patent publication US20260152501A1, “CYCLIN MODULATOR” (EUBULUS BIOTHERAPEUTICS (HONG KONG) LIMITED, priority 2022, published 2026).
